From PMC10377541, “Further Characterization of Fungal Halogenase RadH and Its Homologs” (Biomolecules, 2023)

How the values were obtained:
A0A066XG69 = target: T1, A0A066XG69 (Colletotrichum sublineola, UniProt A0A066XG69); test: HPLC-MS chlorination assay; format: biochemical; settings: FAD, Fre, NADH, MgCl2, Tris HCl pH 7.4, 18 h
T1 construct: gene CSUB01_08252; heterologously expressed in E. coli; RadH homolog

E3R0Q3 = target: T2, E3R0Q3 (Colletotrichum graminicola, UniProt E3R0Q3); test: HPLC-MS chlorination assay; format: biochemical; settings: FAD, Fre, NADH, MgCl2, Tris HCl pH 7.4, 18 h
T2 construct: gene GLRG_11837; heterologously expressed in E. coli; RadH homolog

RadH = target: T3, RadH (Floropilus chiversii, UniProt C5H881); test: X-ray crystallography, […] Å; settings: FAD bound in the flavin-binding domain; chlorine atom in adjacent space; crystals pH 6.5
T3 construct: codon-optimized synthetic gene in pET28, expressed in E. coli T7 Express, Ni-NTA purified; two monomers in the asymmetric unit
T3 sequence (C5H881 whole entry, the tested form may be a part): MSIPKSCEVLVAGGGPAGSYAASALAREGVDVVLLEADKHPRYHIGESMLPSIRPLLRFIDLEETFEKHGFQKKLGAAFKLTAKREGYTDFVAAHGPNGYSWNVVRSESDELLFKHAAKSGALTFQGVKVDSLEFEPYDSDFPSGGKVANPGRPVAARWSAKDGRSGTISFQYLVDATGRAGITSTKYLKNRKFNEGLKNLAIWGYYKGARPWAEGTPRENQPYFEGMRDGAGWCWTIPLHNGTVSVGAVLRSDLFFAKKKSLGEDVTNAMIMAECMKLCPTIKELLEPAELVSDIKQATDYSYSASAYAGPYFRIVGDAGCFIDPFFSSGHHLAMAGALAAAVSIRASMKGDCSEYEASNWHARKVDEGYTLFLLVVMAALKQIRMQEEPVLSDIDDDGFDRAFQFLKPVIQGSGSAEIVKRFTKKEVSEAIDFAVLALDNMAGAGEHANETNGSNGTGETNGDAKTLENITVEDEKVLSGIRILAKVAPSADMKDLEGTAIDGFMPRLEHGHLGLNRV

T1 sequence (A0A066XG69 1-512): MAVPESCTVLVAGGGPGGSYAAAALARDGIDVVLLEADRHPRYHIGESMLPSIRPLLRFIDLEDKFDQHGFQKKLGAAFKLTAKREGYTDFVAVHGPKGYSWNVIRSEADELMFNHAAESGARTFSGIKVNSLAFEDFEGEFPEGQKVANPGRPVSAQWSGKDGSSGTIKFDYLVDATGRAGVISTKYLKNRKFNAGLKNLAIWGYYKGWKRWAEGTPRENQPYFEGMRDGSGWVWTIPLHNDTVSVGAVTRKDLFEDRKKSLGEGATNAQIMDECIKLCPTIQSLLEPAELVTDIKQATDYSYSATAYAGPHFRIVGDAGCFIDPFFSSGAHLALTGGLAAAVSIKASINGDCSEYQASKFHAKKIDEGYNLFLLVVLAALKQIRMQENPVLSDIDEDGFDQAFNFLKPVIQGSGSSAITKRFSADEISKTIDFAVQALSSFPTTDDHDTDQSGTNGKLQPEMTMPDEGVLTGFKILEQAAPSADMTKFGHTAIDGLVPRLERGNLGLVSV
T2 sequence (E3R0Q3 1-512): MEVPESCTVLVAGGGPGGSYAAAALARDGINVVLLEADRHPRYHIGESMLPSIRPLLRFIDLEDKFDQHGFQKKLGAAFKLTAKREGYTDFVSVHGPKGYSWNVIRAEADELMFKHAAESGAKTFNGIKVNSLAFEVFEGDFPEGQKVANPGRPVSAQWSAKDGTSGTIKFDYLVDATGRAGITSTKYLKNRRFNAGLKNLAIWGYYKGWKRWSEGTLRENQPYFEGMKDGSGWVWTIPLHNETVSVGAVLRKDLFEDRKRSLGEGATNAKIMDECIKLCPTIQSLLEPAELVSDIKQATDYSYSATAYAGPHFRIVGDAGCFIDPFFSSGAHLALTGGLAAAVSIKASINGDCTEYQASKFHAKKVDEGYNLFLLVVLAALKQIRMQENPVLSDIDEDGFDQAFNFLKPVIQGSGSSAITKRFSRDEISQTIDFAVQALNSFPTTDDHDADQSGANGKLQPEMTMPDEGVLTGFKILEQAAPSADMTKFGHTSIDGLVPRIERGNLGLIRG

Structure (SMILES)	HPLC-MS chlorination assay (A0A066XG69)	HPLC-MS chlorination assay (E3R0Q3)	X-ray crystallography, 2.4 Å (RadH)
Oc1ccc2cnccc2c1 [6-hydroxyisoquinoline]	A0A066XG69 demonstrated higher conversion compared to RadH or E3R0Q3	E3R0Q3 (Colletotrichum graminicola) and A0A066XG69 (Colletotrichum sublineola), showed activity with standard 6-hydroxyhisoquinoline substrates	
Cc1cc2nc3c(=O)[nH]c(=O)nc-3n(C[C@H](O)[C@H](O)[C@H](O)COP(=O)(O)OP(=O)(O)OC[C@H]3O[C@@H](n4cnc5c(N)ncnc54)[C@H](O)[C@@H]3O)c2cc1C [FAD]			Each monomer consists of a conserved Flavin-binding domain with FAD bound
